This note sets out measurements from patent publication US6620849B2, “Potassium channel inhibitors” (ICAFEN, Inc., priority 2000, dated 2003).

The structures appear in SMILES notation. Like-named read-outs stand apart in the source and are kept apart here.

The assay has as its target T1, Kv1.5 potassium channel (Homo sapiens, UniProt P22460).
T1 construct: expressed in transfected cells
As to the kind of experiment: Whole-cell patch clamp electrophysiological recording of Kv1.5 currents in CHO cells. Type of assay: cell-based. Particulars: CHO cells stably expressing Kv1.5, whole-cell voltage clamp, holding potential −80 mV, one depolarization every 10 seconds. How it is done:
Electrophysiological recordings of potassium currents in Chinese hamster ovary cells stably expressing the gene construct for the Kv1.5 potassium channel subunit were performed using the whole cell configuration of the patch clamp technique (Hamill et al., Pflugers Archiv 391:85, 1981). Cell lines expressing Kv1.5 were prepared using standard techniques known to those skilled in the art. Cells were plated on glass coverslips at a density of 2×10^4 cells/coverslip and used within 24-48 hours. Solutions used for electrophysiological recordings were as follows. Extracellular bathing solutions typically contain (in mM) 132 NaCl, 5.4 KCl, 1.8 CaCl2, 0.8 MgCl2, 10 HEPES, 5 glucose at pH 7.3. Electrode pipette solutions (intracellular solution) for measuring Kv1.5 typically contain (in mM) 100 KF, 40 KCl, 5 NaCl, 2 MgCl2, 5 EGTA, 10 HEPES and 5 glucose at pH 7.4, 295 mOsm and has a resistance of about 1-2 MΩ. The coverslips were placed in a small chamber (volume ˜200 μl) on the mechanical stage of an inverted microscope and perfused (approximately 2 ml/min) with extracellular recording solution. Drug was applied using a series of narrow-bore glass capillary tubes (inner diameter ˜100 μm) positioned approximately 200 μm from the cell.
As soon as the current recording was stable, a compound representative of the present invention was superfused over the cell until steady-state block was observed. Using this technique, the effects of the compound on peak and steady-state current were determined at progressively increasing compound concentrations.
The testing results of selected compounds from Table 2 using this assay and the techniques described above are reported in Table 3 as the percent inhibition of Kv1.5 potassium channel currents at a single concentration of 0.1 μM.
For orientation: Patch clamp records ionic current or voltage across a cell membrane.

Setting [1] is: read-out: Peak Current Inhibition at 0.1 μM (%).
[2] abbreviates: read-out: Steady-state Current Inhibition at 0.1 μM (%).

T1 sequence (P22460 whole entry): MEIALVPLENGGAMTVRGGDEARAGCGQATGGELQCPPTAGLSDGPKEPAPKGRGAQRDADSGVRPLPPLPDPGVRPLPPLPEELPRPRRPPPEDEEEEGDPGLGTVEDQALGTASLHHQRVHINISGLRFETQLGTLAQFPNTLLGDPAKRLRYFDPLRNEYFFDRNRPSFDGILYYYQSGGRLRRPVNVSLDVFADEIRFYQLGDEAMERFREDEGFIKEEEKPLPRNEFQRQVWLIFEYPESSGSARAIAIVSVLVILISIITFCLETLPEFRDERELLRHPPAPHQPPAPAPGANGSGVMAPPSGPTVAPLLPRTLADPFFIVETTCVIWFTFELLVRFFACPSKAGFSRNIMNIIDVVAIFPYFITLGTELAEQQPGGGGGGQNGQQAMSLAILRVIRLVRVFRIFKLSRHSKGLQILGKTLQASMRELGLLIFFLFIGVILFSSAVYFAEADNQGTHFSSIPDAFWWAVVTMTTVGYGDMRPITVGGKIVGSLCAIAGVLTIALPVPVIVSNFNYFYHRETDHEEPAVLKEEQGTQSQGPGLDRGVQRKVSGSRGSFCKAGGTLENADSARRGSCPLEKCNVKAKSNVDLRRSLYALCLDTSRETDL

One may read the inhibition as the percentage by which the read-out fell short of the control. As for `Cn1ccnc1CN(C(=O)[C@@H]1C[C@H]1c1ccc(Cl)cc1)c1ccc2c(c1)[C@@H](NS(=O)(=O)c1ccccc1)CCC2` [Example 44], the inhibition at 0.1 µM by setting is: under setting [1], 71%; under setting [2], 92%.
For `Cc1cccc(CN(C(=O)[C@@H]2C[C@H]2c2ccccc2)c2ccc3c(c2)[C@@H](NS(=O)(=O)c2ccc(F)cc2)CCC3)n1` [Example 13] the same measures were 45% and 82%.
For `Cc1ncc(CN(C(=O)C2CC2c2ccccc2)c2ccc3c(c2)C(NS(=O)(=O)c2ccc(F)cc2)CCC3)n1CC(C)C` (stereo not shown) [Example 5], in that order: 39% and 50%.
For `Cn1ccnc1CN(C(=O)[C@H]1C[C@@H]1c1ccc(Cl)cc1)c1ccc2c(c1)[C@@H](NS(=O)(=O)c1ccc(F)cc1)CCC2` [Example 25], in that order: 35% and 69%.
As to `Cc1cccc(CN(C(=O)[C@@H]2C[C@H]2c2ccc(C(F)(F)F)cc2)c2ccc3c(c2)[C@@H](NS(=O)(=O)c2ccccc2F)CCC3)n1` [Example 39], the inhibition at 0.1 µM is, setting by setting: under setting [1], 50%; under setting [2], 69%.
For `Cn1ccnc1CN(C(=O)[C@@H]1C[C@H]1c1ccccc1)c1ccc2c(c1)[C@@H](NS(=O)(=O)c1ccccc1)CCC2` [Example 6], in that order: 72% and 78%.
For `Cc1cccc(CN(C(=O)[C@@H]2C[C@H]2c2ccccc2)c2ccc3c(c2)[C@@H](NS(=O)(=O)c2cccc(Cl)c2)CCC3)n1` [Example 14] the same measures were 42% and 81%.
For `Cn1ccnc1CN(C(=O)[C@@H]1C[C@H]1c1ccc(C(F)(F)F)cc1)c1ccc2c(c1)[C@@H](NS(=O)(=O)c1ccccc1F)CCC2` [Example 43], in that order: 47% and 72%.
Consider `Cc1cccc(CN(C(=O)C2CC2c2ccccc2)c2ccc3c(c2)C(NS(=O)(=O)c2ccccc2)CCC3)n1` (stereo not shown) [Example 7], for which the inhibition at 0.1 µM is, setting by setting: under setting [1], 43%; under setting [2], 68%.
As for `Cc1cccc(CN(C(=O)C2CC2c2ccccc2)c2ccc3c(c2)C(NS(=O)(=O)c2ccccc2Cl)CCC3)n1` (stereo not shown) [Example 9], the inhibition at 0.1 µM reads like this: under setting [1], 60%; under setting [2], 82%.
For `Cn1ccnc1CN(C(=O)[C@@H]1C[C@H]1c1ccc(F)cc1)c1ccc2c(c1)[C@@H](NS(=O)(=O)c1ccccc1F)CCC2` [Example 29], in that order: 68% and 78%.
Regarding `Cc1cccc(CN(C(=O)[C@@H]2C[C@H]2c2ccccc2)c2ccc3c(c2)[C@@H](NS(=O)(=O)c2ccc(Cl)cc2)CCC3)n1` [Example 16], the inhibition at 0.1 µM turned out to be 42% under setting [1] and 80% under setting [2].
For `Cn1ccnc1CN(C(=O)[C@@H]1C[C@H]1c1ccc(F)cc1)c1ccc2c(c1)[C@@H](NS(=O)(=O)c1ccc(F)c(Cl)c1)CCC2` [Example 32], in that order: 70% and 91%.
For `Cc1cccc(CN(C(=O)[C@@H]2C[C@H]2c2ccccc2)c2ccc3c(c2)[C@@H](NS(=O)(=O)c2ccccc2)CCC3)n1` [Example 12] the same measures were 57% and 96%.
With `Cn1ccnc1CN(C(=O)[C@@H]1C[C@H]1c1ccc(F)cc1)c1ccc2c(c1)[C@@H](NS(=O)(=O)c1cccc(F)c1)CCC2` [Example 30], the inhibition at 0.1 µM was 80% under setting [1] and 93% under setting [2].
For `Cn1ccnc1CN(C(=O)[C@H]1C[C@@H]1c1ccc(Cl)cc1)c1ccc2c(c1)[C@H](NS(=O)(=O)c1ccccc1)CCC2` [Example 54], in that order: 57% and 82%.
Turning to `CCc1ccc(S(=O)(=O)N[C@H]2CCCc3ccc(N(Cc4nccn4C)C(=O)[C@@H]4C[C@H]4c4ccc(Cl)cc4)cc32)cc1` [Example 48], the inhibition at 0.1 µM was 70% under setting [1] and 95% under setting [2].
For `Cn1ccnc1CN(C(=O)[C@@H]1C[C@H]1c1ccc(F)cc1)c1ccc2c(c1)[C@@H](NS(=O)(=O)c1ccc(F)cc1)CCC2` [Example 31], in that order: 70% and 84%.
For the compound `Cc1cccc(CN(C(=O)C2CC2c2ccccc2)c2ccc3c(c2)C(NS(=O)(=O)c2ccc(F)cc2)CCC3)n1` (stereo not shown) [Example 10], the inhibition at 0.1 µM under setting [1] worked out at 24% and the inhibition at 0.1 µM under setting [2] worked out at 53%.
For `Cn1ccnc1CN(C(=O)[C@@H]1C[C@H]1c1ccccc1)c1ccc2c(c1)[C@@H](NS(=O)(=O)c1ccc(Cl)cc1)CCC2` [Example 4] the same measures were 64% and 76%.
